Assays:
islet cells = assay: In vitro islet cell glucose transport assay (2-NBDG uptake); format: cell-based, mouse; details: for Km: Lineweaver-Burke plot, 5 min incubation
Protocol: Mouse islet cells were obtained as described (Josefsen et al., J. Endocrinology 14: 145-154, 1996). Briefly, the pancreatic duct was ligated distally and injected with 3 mg/ml collagenase (Sigma), 5 μg/ml DNase (Sigma) and 5.6 mM glucose in Hank's balanced salt solution (HBSS)). The pancreas was removed and incubated for 14 min at 37° C. with shaking (200 strokes/min). The suspension was passed through a 16 gauge needle, centrifuged and suspended in the bottom layer of a discontinuous Ficoll gradient (11%, 20%, 23%, and 25%). After 15 min of centrifugation at 800× gravity at room temperature, cells were recovered from the interfaces and washed in HBSS, followed by hand selection of the islet-enriched interface under a stereomicroscope. Islets were gently dispersed after three consecutive washes with HBSS, then exposed to 0.5 U/ml of dispase (Calbiochem) in HBSS for 3 min. This was followed by gentle repetitive pipeting and a final wash with HBSS. The cells were cultured in RPMI-1640 medium containing 10% FCS, 2 mM L-glutamine, 0.1 mM 2-mercaptoethanol, and 11 mM glucose.
Glucose transport into islet cells was measured using 2-[N-(7-nitrobenz-2-oxa-1,3-diazol-4-yl)amino]-2-deoxy-D-glucose (2-NBDG, Molecular Probes) as described (Yamada et al., J. Biol. Chem. 275: 22278-22283, 2000) Islet cells were incubated in glucose free-KRBH for 20 min at 37° C., and then with various concentrations of 2-NBDG. To measure the time course of 2-NBDG transport, islet cells were incubated with 500 μM of 2-NBDG in KRBH in the presence or absence of 10 mM D-glucose for the indicated times (FIG. 2K), then washed three times with glucose free-KRBH, and intracellular fluorescence (excitation 485-495 nm, emission 515-525 nm) was measured using a VersaFluor Fluorometer System (Bio-Rad, Hercules, Calif.). Concentration dependence was determined in same conditions except that cells were incubated with 100 μM, 200 μM, 400 μM, 800 μM, 1.6 mM, 3.2 mM, or 6.4 mM of 2-NBDG for 5 min.

[1] = Arginine tolerance test (serum insulin after L-arginine injection); format: in vivo; details: wild-type and GnT-4a deficient mice, fasted 16 hr, i.p. 3 g/Kg
Protocol: Mice were fasted for 16 hr followed by intraperitoneal (i.p.) glucose injection (1.5 g/Kg body weight). Blood samples were obtained at 0, 30, 60, 120, and 240 min after the injection and measurements of glucose and insulin was determined, the latter using a rat insulin ELISA assay with a mouse insulin standard (Crystal Chem., Chicago, Ill.). In testing insulin tolerance, mice were injected i.p. with 2 U/kg body weight human insulin (Carbiochem, La Jolla, Calif.) followed by blood collection at 0, 30, 60 120, and 240 min after injection, and serum glucose levels were analyzed. In arginine tolerance tests, mice were fasted overnight for 16 hr followed by i.p. injection (3 g/Kg body weight) of L-arginine (Sigma, St. Louis, Mo.). Blood samples were analyzed at 0, 2, 5, 15, and 30 min after the injection.

Compound | Km (islet cells; Mgat4a null islet cells) | Vmax of 2-NBDG uptake (islet cells; Mgat4a null islets) | Km (islet cells; wild-type islet cells) | Vmax of 2-NBDG uptake (islet cells; wild-type islets) | Serum insulin concentrations after L-arginine treatment [1]
O=[N+]([O-])c1ccc(N[C@H]2C(O)O[C@H](CO)[C@@H](O)[C@@H]2O)c2nonc12 (stereo partly drawn) [2-NBDG, 2-[N-(7-nitrobenz-2-oxa-1,3-diazol-4-yl)amino]-2-deoxy-D-glucose] | 9.1 mM | 1.86 nmol/5 min/0.5×10^5 cells | 9.53 mM | 16.95 nmol/5 min/0.5×10^5 cells | –
N=C(N)NCCC[C@H](N)C(=O)O [L-arginine] | – | – | – | – | robust increases in serum insulin concentrations

Source: US8034556B2, “Regulation of glucose and insulin levels by GnT-4 glycosyltransferase activity” (The Regents of the University of California, priority 2004, dated 2011)
